Results reported in patent US12569502B2, “Use of bile acids and derivatives thereof in preparation of GPR39 agonist” (PEKING UNIVERSITY, priority 2019, dated 2026).
Like-named read-outs stand apart in the source and are kept apart here.

Columns and labels:
Type in all cases: cell-based
HEK293T cells = assay: FLIPR calcium imaging on HEK293T cells not expressing GPR39; details: 293T cells not expressing GPR39
Method: (§1) Bile acids and derivatives thereof as listed in Table 1 below were dissolved in dimethyl sulfoxide (DMSO, Sigma Co.) solvent to formulate a stock solution of 50 mM, which was stored at −20° C. During calcium imaging with FLIPR, the drug was diluted with the above 4K solution into a working concentration of 400 μM, and packaged into another 96-well plate. The drug solution and the cell samples in Example 2.2 were placed into the designated position of the FLIPR instrument (MolecularDevices Co.) respectively. The instrument parameters were set so that 50 μL of the drug solution may be added into the culture wells within 2 s. The fluorescence recording result within the first 30 seconds was used as the baseline value. The FLIPR robot arm was programmed to automatically add bile acids and derivatives thereof into the cell sample culture wells at the 31st second. 1% of DMSO solvent was used as the blank control.
The results of FLIPR calcium imaging experiment of the bile acids and derivatives thereof are shown in FIG. 1, wherein the horizontal coordinate represents the time, and the vertical coordinate represents the relative fluorescence intensity.

[1] = molecular target: T1, GPR39 receptors on m39-20 cell lines (Mus musculus, UniProt Q5U431, T447P); assay: FLIPR calcium imaging on m39-20 cell lines stably expressing murine-derived GPR39; details: for Bile acid + 4 μM zinc ions Efficacy / Only bile acid Efficacy: activation efficacy; for intracellular calcium signals in m39-20 cell lines: FIG. 1; for intracellular calcium signaling response in m39-20 cells: absence of zinc ions; for change of activation efficacy after the addition of zinc ions: Table 1, FIG. 2; for activation capacity on GPR39 receptors among the bile acids: dose curves
T1 construct: P2A-mCherry (C); expressed in transfected cells
T1 sequence (Q5U431 1-456 T447P): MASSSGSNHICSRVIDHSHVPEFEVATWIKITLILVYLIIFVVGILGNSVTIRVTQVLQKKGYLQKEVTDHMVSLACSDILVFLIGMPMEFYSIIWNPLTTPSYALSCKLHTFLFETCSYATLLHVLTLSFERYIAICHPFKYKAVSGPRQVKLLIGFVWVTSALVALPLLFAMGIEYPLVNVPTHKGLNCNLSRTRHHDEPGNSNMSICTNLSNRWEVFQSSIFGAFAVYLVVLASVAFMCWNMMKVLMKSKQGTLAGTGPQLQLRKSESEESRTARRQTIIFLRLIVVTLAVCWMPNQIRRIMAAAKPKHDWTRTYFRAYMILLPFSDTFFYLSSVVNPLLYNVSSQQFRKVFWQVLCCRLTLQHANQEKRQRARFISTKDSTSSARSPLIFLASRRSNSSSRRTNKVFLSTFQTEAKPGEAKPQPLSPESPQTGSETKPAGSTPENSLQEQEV
Description: Intracellular calcium imaging is a routine technique to study cell functions, the basic principle of which is to detect the concentration of the calcium ion in tissues or cells using a calcium indicator, thereby reflecting certain reactions in the tissues or cells. In the present application, the intracellular calcium released from a cell line that stably or transiently expresses GPR39 is detected using Fluo8-AM, a calcium fluorescent indicator, so as to determine the activation of the GPR39 receptor by the bile acid and derivative thereof.
HEK293T cells (purchased from ATCC) were seeded in a 6-well plate (coming Co.) at an appropriate density (about 0.5-2×10^5/well). When the cell density reached above 30%, the plasmid PLVXK-mGPR39-P2A-mCherry was transfected with Lipofectamine 3000 (Invitrogen) at a concentration of 2 μg per well. The cells were passaged 24 hours after transfection, the puromycin (gibco) was added into the medium at a concentration of 2 μg/mL for antibiotic screening of cells. After 2-4 days of continuous screening, the cells screened for puromycin resistance were trypsinized and screened by flow cytometry for monoclones with red fluorescence. And these monoclones were seeded in a 96-well plate and cultured in a medium without puromycin for around 10 days. Cell colonies with red fluorescence were sorted under a fluorescence microscope, trypsinized and then passaged and expanded in a 6-well plate. Cell lines m39-20 stably expressing murine-derived GPR39 were obtained through the above methods.
Calcium dye Fluo8-AM (ATT bioquest Co.) was dissolved in DMSO solvent to formulate a stock solution of 1 μg/μL. […] After then, the calcium dye working solution was replaced with the 4K solution (50 μL per well), and acclimated for 5 min at room temperature for the subsequent calcium imaging experiment.
as §1, with “The drug solution and the cell samples in Example 2.2 were placed into the designated position of the FLIPR instrument (MolecularDevices Co.) respectively.” left out
After that, the calcium dye working solution was replaced with a 4K solution containing 4 μM zinc ions (50 μL per well), followed by acclimation for 5 min at room temperature.

[2] = molecular target: T2, human GPR39 receptors on human GPR39-2 cell lines (Homo sapiens, UniProt O43194); assay: FLIPR calcium imaging on human GPR39-2 cell line stably expressing human GPR39; details: for intracellular calcium signal response of human GPR39-2: FIG. 9; for EC50: human GPR39-2 cells
T2 construct: P2A-mCherry (C)
T2 sequence (O43194 1-453): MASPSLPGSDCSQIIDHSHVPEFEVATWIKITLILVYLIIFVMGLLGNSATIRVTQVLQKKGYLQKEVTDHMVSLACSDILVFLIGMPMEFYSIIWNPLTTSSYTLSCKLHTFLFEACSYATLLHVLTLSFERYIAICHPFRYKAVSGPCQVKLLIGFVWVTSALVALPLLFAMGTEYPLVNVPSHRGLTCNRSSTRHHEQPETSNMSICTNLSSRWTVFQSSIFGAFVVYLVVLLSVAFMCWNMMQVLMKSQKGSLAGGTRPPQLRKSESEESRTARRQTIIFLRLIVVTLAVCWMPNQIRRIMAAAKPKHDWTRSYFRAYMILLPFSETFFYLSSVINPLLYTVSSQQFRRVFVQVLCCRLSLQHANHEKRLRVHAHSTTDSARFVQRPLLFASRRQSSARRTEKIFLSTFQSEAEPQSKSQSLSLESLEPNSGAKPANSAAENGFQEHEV
Description: The human GPR39 cDNA vector was purchased from WZ Biosciences Inc., Shandong. It was cloned onto a lentiviral vector PLVXK-hGPR39-P2A-mCherry (FIG. 10) through PCR amplification using primers hGPR39-F (which sequence was shown as set forth in SEQshown as set forth in SEQ ID NO: 15) and hGPR39-R (which sequence was shown as set forth in SEQ shown as set forth in SEQ ID NO: 16), in which the sequence of the target gene human GPR39 cDNA was shown as set forth in SEQ shown as set forth in SEQ ID NO: 14. A cell line human GPR39-2 stably expressing human GPR39 gene was constructed according to the method of Example 1.

[3] = Bile acid + 4 μM zinc ions EC50, m39-20 cells, 4 μM zinc ions
[4] = m39-20 cells, no zinc ions, read-out: Only bile acid EC50

Row | activation of GPR39 receptors in the presence of zinc ions ([1]; m39-20 cells, 4 μM zinc ions) | EC50 [1, 4] [µM] | SMILES | calcium signals on HEK293T cells not expressing GPR39 (HEK293T cells) | EC50 [1, 3] [µM] | Bile acid + 4 μM zinc ions Efficacy ([1]; m39-20 cells, 4 μM zinc ions) [%] | Only bile acid Efficacy ([1]; m39-20 cells, no zinc ions) [%] | intracellular calcium signal response of human GPR39-2 [2] | EC50 ([2]; no added zinc ions, read-out: EC50 Only agonist) [µM] | EC50 ([2]; read-out: EC50 Agonist + 4 μM zinc ions, 4 μM zinc ions) [µM] | intracellular calcium signals in m39-20 cell lines [1] | intracellular calcium signaling response in m39-20 cells [1] | change of activation efficacy after the addition of zinc ions ([1]; m39-20 cells) | activation capacity on GPR39 receptors among the bile acids ([1]; m39-20 cells) | EC50 ([1]; Only bile acid EC50, m39-20 cells, no zinc ions) [µM]
1 | capable of activating GPR39 receptors | > 200 | C[C@H](CCC(=O)O)[C@H]1CC[C@H]2[C@@H]3[C@H](O)C[C@@H]4C[C@H](O)CC[C@]4(C)[C@H]3CC[C@]12C [CDCA, Chenodeoxycholic acid] | may induce observable calcium signals | 75.1 ± 7.6 | 85 ± 5.2 | 0 | – | – | – | – | – | – | – | –
2 | – | – | C[C@H](CCC(=O)NCCS(=O)(=O)[O-])[C@H]1CC[C@H]2[C@@H]3CC[C@@H]4C[C@H](OS(=O)(=O)[O-])CC[C@]4(C)[C@H]3CC[C@]12C.[Na+].[Na+] [TLCAS] | – | – | – | – | capable of inducing intracellular calcium signal response | 69.4 ± 5 | 9.6 ± 6.3 | varying extents of intracellular calcium signals | strong intracellular calcium signaling response | increases slightly | strongest activation capacity | –
3 | capable of activating GPR39 receptors | > 200 | C[C@H](CCC(=O)O)[C@H]1CC[C@H]2[C@@H]3CC[C@@H]4C[C@H](O)CC[C@]4(C)[C@H]3C[C@H](O)[C@]12C [DCA, Deoxycholic acid] | may induce observable calcium signals | 58.4 ± 10 | 93.1 ± 1.4 | 0 | – | – | – | – | – | – | – | –
4 | – | – | C[C@H](CCC(=O)NCC(=O)O)[C@H]1CC[C@H]2[C@@H]3CC[C@@H]4C[C@H](O)CC[C@]4(C)[C@H]3CC[C@]12C [GLCA] | – | 13.5 ± 3.4 | 74 ± 4.1 | 0 | – | – | – | varying extents of intracellular calcium signals | – | obviously improved | – | > 200

Row | SMILES | activation of GPR39 receptors in the presence of zinc ions ([1]; m39-20 cells, 4 μM zinc ions) | EC50 [1, 4] [µM] | calcium signals on HEK293T cells not expressing GPR39 (HEK293T cells) | EC50 [1, 3] [µM] | Bile acid + 4 μM zinc ions Efficacy ([1]; m39-20 cells, 4 μM zinc ions) [%] | Only bile acid Efficacy ([1]; m39-20 cells, no zinc ions) [%] | intracellular calcium signal response of human GPR39-2 [2] | EC50 ([2]; no added zinc ions, read-out: EC50 Only agonist) [µM] | EC50 ([2]; read-out: EC50 Agonist + 4 μM zinc ions, 4 μM zinc ions) [µM] | intracellular calcium signals in m39-20 cell lines [1] | intracellular calcium signaling response in m39-20 cells [1] | change of activation efficacy after the addition of zinc ions ([1]; m39-20 cells) | activation capacity on GPR39 receptors among the bile acids ([1]; m39-20 cells) | EC50 ([1]; Only bile acid EC50, m39-20 cells, no zinc ions) [µM]
5 | C[C@H](CCC(=O)NCC(=O)O)[C@H]1CC[C@H]2[C@@H]3CC[C@@H]4C[C@H](OS(=O)(=O)O)CC[C@]4(C)[C@H]3CC[C@]12C [GLCAS] | – | 47.9 ± 9.4 | – | 8 ± 1.8 | 110.8 ± 4.1 | 98.8 ± 4.6 | capable of inducing intracellular calcium signal response | – | – | varying extents of intracellular calcium signals | strong intracellular calcium signaling response | increases slightly | strongest activation capacity | –
